Source: paper PMC7610391, “Photocatalytic proximity labelling of MCL-1 by a BH3 ligand” (Communications chemistry, 2019)
“Also recorded” adds a separate entry of the source.

What was measured:
[1] = molecular target: T1, MCL-1 (Homo sapiens, UniProt Q07820); assay: Photolabelling of recombinant MCL-1, ESI-MS
T1 construct: Recombinant MCL-1_172–327 was expressed and purified as published previously; made in house

[2] = molecular target: T1, MCL-1; assay: Pull-down of biotinylated MCL-1 with avidin-agarose beads; details: 20, 10 µM biotin-RTA 3, or 100 µM with excess label removed
Protocol: Pull-down of biotinylated MCL-1
The crude labelling mixture was incubated with avadin-agarose beads (50 µL) at r.t. for 2 hours with gentle agitation (input lanes 1-4 and their respective pull-down lanes 6-9). Note that for input lane 5/pull-down lane 10, excess biotin-RTA 3 was removed from the crude labelling mixture using a protein concentrator (10 kDa MWCO) prior to incubation with avidin-agarose beads. Following removal of the supernatant, the beads were washed twice with PBS (100 µL), then boiled at 90 °C for 10 mins in sample loading buffer to elute bound proteins. Samples were separated by SDS-PAGE: the gel (15% acrylamide) was run at a constant voltage of 180 V for 45 min, then the gel was stained with Coomassie Brilliant Blue (CBB) and the image obtained on a Molecular Imager ChemiDoc XRS.
Supplementary Figure 19: Isolation of biotinylated MCL-1 from crude labelling mixture through pull-down with avadin-agarose beads (CBB stained gel). Conditions: 5 µM MCL-1, 0-100 µM biotin-RTA 3, 1 µM Ru(II)(bpy)3-NOXA-B, 10 µM APS, 1 min irradiation, 50 mM […]
3 was used (lanes 7 and 8, respectively), in addition to when 100 µM biotin-RTA 3 was used and the excess label 3 was removed using a protein concentrator (lane 10). 50 µL avidin-agarose beads was used in pull-down experiments.

[3] = molecular target: T2, BCL-XL (Homo sapiens, UniProt Q07817, DEL27-82); assay: Photolabelling of BCL-xL with Ac-RTA 4, ESI-MS; details: pH 7.4
T2 construct: made in house

[4] = molecular target: T3, MCL-1/FITC-NOXA-B interaction (Homo sapiens, UniProt Q07820); assay: Fluorescence anisotropy competition, MCL-1/FITC-NOXA-B; type: biochemical; details: [MCL-1] 75 nM, tracer FITC-NOXA-B 25 nM, Tris buffer pH 7.4, triplicate; printed as ≫; read-out: IC50 against MCL-1
T3 construct: Recombinant MCL-1_172–327 was expressed and purified as published previously; made in house

[5] = molecular target: T1, MCL-1; assay: Competition of Ru(II)(bpy)3-NOXA-B 1-mediated MCL-1 photolabelling, in-gel fluorescence; type: biochemical; details: 0-100 µM competitor; 5 µM MCL-1, 5 µM TAMRA-RTA 2, 1 µM 1, 10 µM APS, 1 min hν

T1 sequence (Q07820 172-327): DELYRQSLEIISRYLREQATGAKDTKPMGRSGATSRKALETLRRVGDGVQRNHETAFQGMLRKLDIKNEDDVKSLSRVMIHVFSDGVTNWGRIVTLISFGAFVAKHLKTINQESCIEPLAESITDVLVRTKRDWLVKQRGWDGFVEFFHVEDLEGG
T2 sequence (Q07817 with tags, fused parts or gaps DEL27-82, species assumed): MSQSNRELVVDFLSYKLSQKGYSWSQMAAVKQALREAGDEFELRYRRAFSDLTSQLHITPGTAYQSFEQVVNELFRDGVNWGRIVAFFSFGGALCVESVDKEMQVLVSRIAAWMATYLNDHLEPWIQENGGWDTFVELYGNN
T3 sequence (Q07820 172-327): as the sequence (Q07820 172-327) above

Compound: CN(C)c1ccc(NC(=O)CCCCCNC(=O)CCCCC2SCC3NC(=O)NC32)cc1 (stereo not drawn) [compound 3]
- background labelling with biotin-RTA 3 in the absence of 1 ([1]; 0 µM 1, 5 μM MCL-1, 5 µM biotin-RTA 3, 10 µM APS, 1 min hν): absence of background labelling
- number of labels incorporated on MCL-1 ([1]; Ru(II)(bpy)3-NOXA-B 1-mediated, intact protein ESI-MS): single biotin labelling of MCL-1
- oxidation at irradiation times greater than 1 min ([1]; biotin-RTA 3 5 µM, 1 µM 1, 10 µM APS, 15 mins irradiation shown): higher conversion to oxidised protein species
- affinity purification of biotinylated MCL-1 [2]: Biotinylated MCL-1 was pulled-down; also recorded: could be affinity-purified with avidin-agarose beads

Compound: [Ru+2].c1ccc(-c2ccccn2)nc1.c1ccc(-c2ccccn2)nc1.c1ccc(-c2ccccn2)nc1 [Ru(II)(bpy)3]
- photolabelling efficiency of MCL-1 versus targeted catalyst 1 ([1]; 20 mol% Ru(II)(bpy)3, 50 μM Ac-RTA 4, 10 μM APS, 1 min irradiation, pH 7.4): labelling was less efficient
- effect of photocatalyst concentration on BCL-xL labelling [3]: increased at higher concentrations of Ru(II)(bpy)3
- labelling of BCL-xL with Ac-RTA 4 [3]: small amounts of BCL-xL could be labelled

Compound: 6b: variant Ac-BID sequence with key hot-spot residues exchanged (L90A and D95R) (EDIIRNIARHAAQVGRSXDRSIW; N-terminal acetyl; C-terminal amide; X18 = norleucine (Nle))
- IC50 [4]: > 50 µM

Compound: CC[C@H](C)[C@H](NC(=O)[C@H](CCCNC(=N)N)NC(=O)[C@H](CCCNC(=N)N)NC(=O)[C@H](CC(C)C)NC(=O)[C@H](CCC(N)=O)NC(=O)[C@H](C)NC(=O)[C@H](C)NC(C)=O)C(=O)NCC(=O)N[C@@H](CC(=O)O)C(=O)N[C@@H](CCCCN)C(=O)N[C@H](C(=O)N[C@@H](CC(N)=O)C(=O)N[C@@H](CC(C)C)C(=O)N[C@@H](CCCNC(=N)N)C(=O)N[C@@H](CCC(N)=O)C(=O)N[C@@H](CCCCN)C(=O)N[C@@H](CC(C)C)C(=O)N[C@@H](CC(C)C)C(=O)N[C@@H](CC(N)=O)C(N)=O)C(C)C [compound 5]
- inhibition of MCL-1 labelling by Ac-NOXA-B [5]: did not completely abrogate labelling
